The source made the active and inactive calls. For most assays here, no stated cut-off is given here; in the data, actives have a measured EC50 and inactives only a lower limit.
Experiments:
H4 = test: Luminescence Cell-Based Dose Response HTS to Identify Activators of 5'UTR Stem-Loop Driven Prion Protein mRNA Translation in H4 Neuroglioblastoma Cells. [Related pubchem assays: 1829 (Project Summary), 1814 (Primary HTS)]; format: functional; conditions: Homo sapiens
[1] = Luminescence Cell-Based Dose Confirmation HTS to Identify Activators of 5'UTR Stem-Loop Driven Alpha-Synuclein mRNA Translation in H4 Neuroglioblastoma Cells. [Related pubchem assays: 1829 (Project Summary), 1814 (Primary HTS)]; format: functional
[2] = Luminescence Cell-Based Dose Response HTS to Identify Activators of Luciferase Translation or Activity in H4 […] Cells. [Related pubchem assays: 1829 (Project Summary), 1814 (Primary HTS)]; format: functional
[3] = NIH-3T3 fibroblast cytotoxicity, dose response, cytotoxicity control, cell-based, fluorescence, Alamar Blue, secondary assay (AID 2327); format: functional;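 further: NIH-3T3 mouse fibroblasts cultured with fluconazole at 8 µg/mL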
[4] = biological target: T1, Carboxy-terminal domain RNA polymerase II polypeptide A small phosphatase 1 (Homo sapiens, UniProt Q9GZU7); test: CTDSP1 inhibitors, concentration-response, biochemical, absorbance readout, ultra-high-throughput screen actives (AID 540297); format: functional
T1 sequence (Q9GZU7 whole entry): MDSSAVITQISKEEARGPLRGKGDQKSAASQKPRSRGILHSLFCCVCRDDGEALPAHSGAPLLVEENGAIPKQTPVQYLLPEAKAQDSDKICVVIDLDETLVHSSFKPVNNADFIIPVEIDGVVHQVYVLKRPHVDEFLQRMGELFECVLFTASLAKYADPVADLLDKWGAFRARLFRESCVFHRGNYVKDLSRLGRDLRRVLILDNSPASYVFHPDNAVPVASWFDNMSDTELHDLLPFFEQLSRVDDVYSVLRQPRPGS

[5] = fluconazole-exposed Candida albicans growth modulators – fluorescence, retest, confirmation (AID 2467); format: functional, cell-based
[6] = OVCAR8 cell viability loss – plate reader, dry powder samples, PAX8 project, dose response (AID 743197); format: functional, cell-based; conditions: OVCAR-8
Paired box protein Pax-8 = Paired box protein Pax-8 (Homo sapiens, UniProt Q06710); test: PAX8 transcriptional activity inhibition in RMG-I – RMG-I cells, luciferase, cherry-pick, dose response (AID 687027); format: functional, cell-based;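 further: luciferase reporter driven by Pax8 target thyroperoxidase promoter measured by SteadyGlo luminescence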
Fatty acid synthase [7] = biological target: T2, Fatty acid synthase (Homo sapiens, UniProt P49327); test: inhibition of human FAS-TE enzyme activity – biochemical, endpoint fluorescence intensity, uHTS hits, dose response (AID 624327); format: functional;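 further: fluorescence from hydrolysis of an O-methyl fluorescein acyl ester substrate by the enzyme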
Fatty acid synthase [8] = biological target: T2, Fatty acid synthase; test: inhibition of human FAS-TE enzyme activity – biochemical, kinetic fluorescence intensity, dose response (AID 624326); format: functional;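 further: rate of fluorescence rise from hydrolysis of a fluorogenic O-methyl fluorescein ester substrate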
[9] = biological target: T3, High affinity choline transporter 1 (Homo sapiens, UniProt Q9GZV3); test: human choline transporter blockers, potency – cell-based, 5-point CRC, membrane potential dye, dose response (AID 504840); format: functional
T3 sequence (Q9GZV3 whole entry): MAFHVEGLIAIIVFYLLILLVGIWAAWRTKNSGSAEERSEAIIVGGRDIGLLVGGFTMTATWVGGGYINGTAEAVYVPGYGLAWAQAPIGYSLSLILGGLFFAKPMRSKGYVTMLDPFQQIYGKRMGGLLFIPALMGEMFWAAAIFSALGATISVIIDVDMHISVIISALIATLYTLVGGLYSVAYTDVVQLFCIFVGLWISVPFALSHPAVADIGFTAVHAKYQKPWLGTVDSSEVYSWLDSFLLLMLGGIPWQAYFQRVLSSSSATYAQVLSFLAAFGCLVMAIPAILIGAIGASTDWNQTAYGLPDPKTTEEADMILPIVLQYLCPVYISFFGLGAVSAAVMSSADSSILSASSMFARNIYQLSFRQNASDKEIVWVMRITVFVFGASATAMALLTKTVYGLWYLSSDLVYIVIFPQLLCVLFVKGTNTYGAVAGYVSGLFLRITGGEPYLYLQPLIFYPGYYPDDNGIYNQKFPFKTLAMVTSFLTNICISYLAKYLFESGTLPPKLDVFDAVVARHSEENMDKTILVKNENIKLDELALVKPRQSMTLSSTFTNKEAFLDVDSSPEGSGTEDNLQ

[10] = Trypanosoma cruzi growth suppression in host cells – NIH3T3 host cells, beta-gal luminescence, confirmation (AID 2044); format: functional, cell-based;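 further: intracellular parasites grown in NIH/3T3 mouse fibroblasts as host cells; luminescent beta-galactosidase reporter signal from transgenic T. cruzi replicating inside host cells; inhibitors lower the luminescence signal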
[11] = NIH3T3 cell viability loss – ATP luminescence, mouse fibroblasts, counter-screen, dose response (AID 2010); format: functional, cell-based;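 further: cells exposed to compound for about 90 hours before reading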
cells [12] = format: functional, cell-based
cells [13] = format: functional, cell-based; remark: listed apart in the source
cells [14] = format: functional
[15] = THP-1 cell cytotoxicity, dose response, cytotoxicity control for non-replicating M. tuberculosis project (AID 489025); format: functional
[16] = biological target: T4, Heat shock factor protein 1 (Mus musculus, UniProt P38532); test: decrease of HSF1-responsive luciferase luminescence – cell-based, NIH3T3, dose retest, confirmation (AID 2382); format: functional;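 further: NIH3T3 fibroblasts with HSF1-driven luciferase reporter stressed by proteasome inhibitor MG132; luminescence from HSF1-driven luciferase expression after 8 hours of MG132 stress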
T4 sequence (P38532 whole entry): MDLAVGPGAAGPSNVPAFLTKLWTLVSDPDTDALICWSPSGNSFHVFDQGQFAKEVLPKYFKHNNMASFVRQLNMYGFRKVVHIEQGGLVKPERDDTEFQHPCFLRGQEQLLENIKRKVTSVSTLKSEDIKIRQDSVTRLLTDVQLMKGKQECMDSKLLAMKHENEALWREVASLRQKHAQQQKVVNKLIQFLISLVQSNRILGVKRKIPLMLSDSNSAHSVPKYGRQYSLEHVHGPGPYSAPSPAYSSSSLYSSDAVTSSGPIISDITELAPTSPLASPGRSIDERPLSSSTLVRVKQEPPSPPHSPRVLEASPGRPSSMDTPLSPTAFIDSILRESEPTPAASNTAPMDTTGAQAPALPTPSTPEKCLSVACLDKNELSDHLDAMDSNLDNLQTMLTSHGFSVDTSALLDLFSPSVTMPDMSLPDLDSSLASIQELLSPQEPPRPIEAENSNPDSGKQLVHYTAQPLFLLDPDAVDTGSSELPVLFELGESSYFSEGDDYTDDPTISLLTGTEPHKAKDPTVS

T2 sequence (P49327 whole entry): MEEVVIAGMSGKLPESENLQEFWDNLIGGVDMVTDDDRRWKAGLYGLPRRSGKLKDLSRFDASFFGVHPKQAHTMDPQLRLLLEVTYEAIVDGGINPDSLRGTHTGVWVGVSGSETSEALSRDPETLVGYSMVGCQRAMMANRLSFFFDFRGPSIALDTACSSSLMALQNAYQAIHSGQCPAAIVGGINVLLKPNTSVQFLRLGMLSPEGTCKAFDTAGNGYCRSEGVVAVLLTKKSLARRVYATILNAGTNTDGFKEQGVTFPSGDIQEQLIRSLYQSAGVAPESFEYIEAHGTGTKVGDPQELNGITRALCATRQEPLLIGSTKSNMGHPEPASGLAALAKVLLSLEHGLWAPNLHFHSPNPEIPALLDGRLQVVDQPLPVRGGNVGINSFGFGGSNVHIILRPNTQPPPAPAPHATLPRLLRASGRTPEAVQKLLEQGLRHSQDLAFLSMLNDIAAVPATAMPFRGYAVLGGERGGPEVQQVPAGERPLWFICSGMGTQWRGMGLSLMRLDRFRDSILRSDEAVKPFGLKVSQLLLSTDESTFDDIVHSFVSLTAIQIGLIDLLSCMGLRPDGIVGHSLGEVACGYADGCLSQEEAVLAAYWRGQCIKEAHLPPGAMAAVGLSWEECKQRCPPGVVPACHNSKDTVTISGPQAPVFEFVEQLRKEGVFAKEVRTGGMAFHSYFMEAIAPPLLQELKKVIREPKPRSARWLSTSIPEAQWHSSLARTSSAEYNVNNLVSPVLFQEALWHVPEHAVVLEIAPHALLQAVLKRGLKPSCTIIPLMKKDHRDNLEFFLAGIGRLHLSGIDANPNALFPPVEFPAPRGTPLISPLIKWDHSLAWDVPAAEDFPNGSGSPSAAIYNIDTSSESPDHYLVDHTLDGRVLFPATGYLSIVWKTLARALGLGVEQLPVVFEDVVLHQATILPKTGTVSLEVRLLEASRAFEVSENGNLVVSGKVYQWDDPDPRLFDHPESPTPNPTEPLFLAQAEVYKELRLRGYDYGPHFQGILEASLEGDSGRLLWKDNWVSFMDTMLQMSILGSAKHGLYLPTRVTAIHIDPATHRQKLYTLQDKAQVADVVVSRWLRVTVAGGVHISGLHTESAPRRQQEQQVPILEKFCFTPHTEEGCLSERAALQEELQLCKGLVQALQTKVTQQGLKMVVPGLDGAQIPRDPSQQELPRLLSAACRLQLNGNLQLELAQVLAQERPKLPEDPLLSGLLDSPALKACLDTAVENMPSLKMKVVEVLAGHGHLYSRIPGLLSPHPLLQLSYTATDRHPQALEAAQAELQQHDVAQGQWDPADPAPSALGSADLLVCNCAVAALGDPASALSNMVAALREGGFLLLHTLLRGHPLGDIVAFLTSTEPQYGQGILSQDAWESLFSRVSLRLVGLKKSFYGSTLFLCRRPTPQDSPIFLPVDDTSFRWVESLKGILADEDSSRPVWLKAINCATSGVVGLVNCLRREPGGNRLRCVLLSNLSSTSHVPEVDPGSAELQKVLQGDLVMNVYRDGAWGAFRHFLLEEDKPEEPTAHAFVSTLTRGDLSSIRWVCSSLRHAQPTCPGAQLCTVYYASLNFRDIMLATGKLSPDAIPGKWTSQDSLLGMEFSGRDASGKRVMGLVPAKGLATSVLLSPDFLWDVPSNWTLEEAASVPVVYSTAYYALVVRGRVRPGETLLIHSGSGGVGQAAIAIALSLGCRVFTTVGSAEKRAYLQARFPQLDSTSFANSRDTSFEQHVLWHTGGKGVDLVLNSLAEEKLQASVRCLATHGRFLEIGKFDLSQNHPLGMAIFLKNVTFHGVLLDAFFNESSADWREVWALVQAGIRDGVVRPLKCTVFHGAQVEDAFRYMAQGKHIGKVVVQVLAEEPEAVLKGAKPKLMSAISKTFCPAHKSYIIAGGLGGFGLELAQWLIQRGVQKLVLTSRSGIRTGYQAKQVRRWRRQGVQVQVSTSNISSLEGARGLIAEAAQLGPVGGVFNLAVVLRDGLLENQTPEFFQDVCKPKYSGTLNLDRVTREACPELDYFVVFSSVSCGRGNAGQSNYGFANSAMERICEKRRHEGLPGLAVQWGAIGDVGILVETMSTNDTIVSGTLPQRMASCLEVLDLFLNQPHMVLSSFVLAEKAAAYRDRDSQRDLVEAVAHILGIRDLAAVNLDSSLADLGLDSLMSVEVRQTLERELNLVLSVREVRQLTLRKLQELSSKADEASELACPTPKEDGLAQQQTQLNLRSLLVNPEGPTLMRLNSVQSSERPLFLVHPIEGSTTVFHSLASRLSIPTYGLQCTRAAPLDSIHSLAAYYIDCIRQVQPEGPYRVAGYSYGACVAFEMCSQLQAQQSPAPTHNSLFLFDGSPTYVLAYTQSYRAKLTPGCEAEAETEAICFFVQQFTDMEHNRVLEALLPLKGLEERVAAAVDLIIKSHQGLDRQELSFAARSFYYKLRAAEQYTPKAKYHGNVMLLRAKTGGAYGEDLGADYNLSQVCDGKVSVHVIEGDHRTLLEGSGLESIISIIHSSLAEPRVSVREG
Chain of Paired box protein Pax-8 (Q06710 whole entry): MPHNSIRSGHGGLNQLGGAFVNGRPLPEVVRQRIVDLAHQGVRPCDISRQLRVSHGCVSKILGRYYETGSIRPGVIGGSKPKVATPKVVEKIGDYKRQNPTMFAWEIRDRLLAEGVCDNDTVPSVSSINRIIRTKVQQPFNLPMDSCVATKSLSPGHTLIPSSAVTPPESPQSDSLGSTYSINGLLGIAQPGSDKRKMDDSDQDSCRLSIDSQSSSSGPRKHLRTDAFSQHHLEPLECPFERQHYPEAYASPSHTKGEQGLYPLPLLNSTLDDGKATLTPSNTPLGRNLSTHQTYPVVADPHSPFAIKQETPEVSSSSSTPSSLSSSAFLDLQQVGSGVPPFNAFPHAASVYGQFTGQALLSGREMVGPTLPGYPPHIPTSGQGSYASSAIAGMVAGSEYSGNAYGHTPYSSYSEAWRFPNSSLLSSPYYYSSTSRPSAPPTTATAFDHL

## O=C(Nc1ccc(NC(=O)C2CC2)nc1)c1cccc(F)c1
H4
  EC50: > 120 µM (not active)
[1]
  EC50: 13.1 µM (active)
[2]
  EC50: 11.2 µM (active)

## O=C(O)CCCCCN1C(=O)/C(=C/c2nc3ccccc3[nH]2)SC1=S
[3]
  EC50: > 150 µM (inactive)
[4]
  IC50: 6.09 µM (active)
[5]
  EC50: 5.71 µM (active)

## Cc1ccc(-c2csc(C3=C(N)N(NC(=O)c4ccco4)CC3=O)n2)cc1
[4]
  IC50: 12.9 µM (active)

## C[C@@H]1CN([C@@H](C)CO)C(=O)c2c(c3ccccc3n2C)-c2ccccc2CO[C@H]1CN(C)S(=O)(=O)c1cccc(F)c1
[6]
  AC50: 46.4 µM (active)
Paired box protein Pax-8
  AC50: 13.7 µM (active)

## O=C(O)/C=C\C(=O)Nc1ccccc1C#Cc1ccc(Br)cc1
H4
  EC50: 7.95 µM (active)
[1]
  EC50: 114 µM (active)
[2]
  EC50: 19.7 µM (active)

## O=C(COC(=O)c1cc([N+](=O)[O-])ccc1N1CCOCC1)Nc1cccc(F)c1
Fatty acid synthase [7]
  IC50: 1.1 µM (active)
Fatty acid synthase [8]
  IC50: 0.917 µM (active)

## CCN(CC)CCCn1c2c(c(SCC(=O)N3CCc4ccccc43)nc1=O)CCC2
[9]
  IC50: 10.9 µM (active)

## CN(/N=C/c1ccc([N+](=O)[O-])o1)c1ccccc1
[10]
  EC50: 0.665 µM (active)
[9]
  IC50: 12.9 µM (active)
[11]
  EC50: > 60 µM (not active)

## OCCC#Cc1ccc(CN2CCN(Cc3ccccc3)C(CCO)C2)cc1 (stereo not drawn)
Cells [12]
  EC50: > 350 µM (not active)
Cells [13]
  EC50: > 350 µM (not active)

## O=C(Nc1ccc(C(=O)O)cc1)/C(=C\c1ccc([N+](=O)[O-])cc1)NC(=O)c1ccc(Br)cc1
Fatty acid synthase [7]
  IC50: 2.05 µM (active)
Fatty acid synthase [8]
  IC50: 1.21 µM (active)

## CCC(Oc1ccc2c(c1)C(=O)CC(C)(C)O2)C(=O)NCCN1CCCCCC1 (stereo not drawn)
[9]
  IC50: 15.8 µM (active)

## CC(C)c1ccc(N(C(=O)c2csnn2)C(C(=O)NC(C)(C)C)c2ccncc2)cc1 (stereo not drawn)
H4
  EC50: 22.6 µM (inconclusive)
[1]
  EC50: 5.54 µM (active)
[2]
  EC50: > 120 µM (not active)

## CCC1Oc2ccccc2N(CC(=O)Nc2ccccc2OC)C1=O (stereo not drawn)
Cells [12]
  EC50: > 350 µM (not active)
Cells [13]
  EC50: > 350 µM (not active)

## Clc1ccc(OCCOCCN2CCc3ccccc3C2)c(Cl)c1
Cells [14]
  IC50: 18.6 µM (active)
[15]
  CC50: > 40 µM (active)

## Cc1ccc(NC(=O)CCNC(=O)c2ccc([N+](=O)[O-])cc2)cc1C
Fatty acid synthase [7]
  IC50: 9.54 µM (active)
Fatty acid synthase [8]
  IC50: 9.29 µM (active)

## CCS(=O)(=O)C1=NN2C(=N)/C(=C\c3ccc(OS(=O)(=O)c4ccccc4)cc3)C(=O)N=C2S1
[9]
  IC50: 6.95 µM (active)

## COc1ccc(-c2cc3c(=O)n(CC(=O)NCc4ccc(F)cc4)ncn3n2)cc1
[1]
  EC50: 1.33 µM (active)
[2]
  EC50: 0.124 µM (active)

## CC1(C)Cc2c(C#N)c(SCCC#N)nc(N3CCOCC3)c2CO1
[16]
  EC50: > 195 µM (not active)
Cells [12]
  EC50: > 350 µM (not active)
Cells [13]
  EC50: > 350 µM (not active)

From ChEMBL document CHEMBL1201862, “PubChem BioAssay data set” (2004)
